In patent publication US20110136898A1, “TREATMENT OF RETINAL DEGENERATION” (UNIVERSITY COLLEGE CORK, NATIONAL UNIVERSITY OF IRELAND, …, priority 2008, published 2011):
“Also recorded” adds a separate entry of the source.

Columns and labels:
photoreceptor cells [1] = experiment: Retinal explant culture, SNP induced apoptosis detected by TUNEL; type: cell-based, C57BL/6 mice; details: for Protection of photoreceptor cells from SNP induced apoptosis: retinal explants, TUNEL; for Protection of photoreceptor cells from SNP induced apoptosis / Protection of photoreceptor cells from SNP induced apoptosis at 25 μM: 300 μM SNP 24 h, 1 hour pre-treatment
[2] = Lipophilicity of BP derivatives; type: physicochemical; details: FIG. 4
Protocol: (§1) FIG. 4: Is a histogram of % protection afforded by a 25 μM concentration of each BP derivative BP1 to BP6 in photoreceptor cells as a function of the lipophilicity of each derivative. (P is a logarithmic value that indicates the lipophilicity of a compound).

[3] = Stability of BP derivatives; type: physicochemical
ganglion cells = experiment: NMDA-induced excitotoxicity, acute model of Glaucoma; type: in vivo, balb/c mice
Protocol: In this model intravitreal injection of 40 mM NMDA results in the progressive loss of ganglion cells from the ganglion cell layer (GCL), accompanied by a thinning of the inner plexiform layer (IPL) over time.
By 48 and 72 hours post excitotoxicity the eventual loss of cells of the ONL is evident.
FIG. 13 is a histogram of the data from FIG. 12.
(§2) Apoptosis detection by Terminal deoxynucleotidyl transferase-mediated biotinylated UTP nick end labeling (TUNEL): Retinal explants were fixed in 10% neutral buffered formalin overnight at 4° C., followed by cryoprotection in 25% sucrose overnight at 4° C. Frozen sections (7 μm) were incubated with terminal deoxynucleotidyl transferase (MSC, Dublin, Republic of Ireland) and fluorescein-12-dUTP (Roche, Lewes, UK) according to manufacturers' instructions at 37° C. for 1 h. Sections were mounted and viewed under a fluorescence microscope (Leica DM LB2; Leica, Nussloch, Germany) using an FITC filter.
(§3) Hematoxylin staining: Eyes were fixed in 10% neutral buffered formalin overnight at 4° C., followed by cryoprotection in 25% sucrose overnight at 4° C. Frozen sections (7 μm) were stained in Hematoxylin (Sigma, Dublin, Ireland) for 10 seconds followed by a 15 minute water wash and 2-3 dips in acid alcohol. Following further washing, sections were placed in a 2% sodium bicarbonate (Sigma, Dublin, Ireland) solution for 30 seconds then dehydrated through an alcohol gradient. Sections were cleared in Histoclear (Sigma, Dublin, Ireland) for 5 minutes then mouted in DPX (BDH, VWR International Ltd., Poole, England) and viewed under a light microscope (Leica DM LB2; Leica, Nussloch, Germany).
Intravitreal Injections: Adult balb/c mice were anaesthetised using an intraperitoneal injection of ketamine hydrochloride 35-50 mg/kg (Pharmacia, Corby, Northamptonshire, UK) and xylazine hydrochloride 5-10 mg/kg (Chanelle Pharmaceuticals, Loughrea, Co. Galway, Ireland), and animals were placed in the pronate position. […]

photoreceptor cells [4] = experiment: SNP challenge in photoreceptor cells, protection by BP derivatives; type: cell-based
Protocol: FIG. 2: Is a histogram of results showing the effectiveness of a 25 μM concentration of each of the BP derivatives BP-1 to BP6 against increasing concentrations of SNP in photoreceptor cells. Error bars are +/−standard deviation-SD.
as §1

photoreceptor cells [5] = experiment: Light damage model in vivo, TUNEL; parameters: species or system albino balb/c mice; details: for Protection from light induced retinal damage (apoptosis of photoreceptors): 200 mg/kg IP, 1 hour pre-treatment, single injection
Protocol: FIG. 7: In this figure the study was extended from ex vivo cultures to the light damage model in vivo. In this acute model of retinal disease albino balb/c mice are exposed to excessive white light causing the photoreceptor cells to die by apoptosis. […] The protection extends to 48 hours with only a single injection of BP3.
FIG. 8 is a histogram of the results from FIG. 7. TUNEL positive cells in three independent retinae were counted. Counts were performed on the central 40× field of the outer nuclear layer (ONL) and graphed with error bars (+/−standard deviation-SD).
as §2
Light damage model: Balb/c mice were dark adapted for 18 h prior to exposure to constant light. Mice were injected intraperitoneally with the Active 1 hour prior to light damage. Immediately prior to light exposure their pupils were dilated with 0.5% cyclopentolate under red light. Retinal light damage was induced by exposure to 2 h of cool white fluorescent light at an illumination of 5000 lux. Following exposure to constant light, animals were placed in the dark for 24 h then killed immediately by cervical dislocation. TUNEL staining was performed as described above.

photoreceptor cells [6] = experiment: rd10 chronic model of retinal degeneration; type: in vivo, rd10 mouse
Description: In this model photoreceptor cells degenerate more slowly than the light model, over weeks rather than hours to days. Cell death is evident from postnatal day 18 (P18) and by P25 a significant loss of photoreceptor cell layers is observed. […] In this model, the central and peripheral retina degenerate at different rates. The loss of photoreceptors is greater in the central retina than the periphery between P18 and P25.
FIG. 10: The ONL comprises two types of cell; rod photoreceptors and cone photoreceptors. […] Rhodopsin is a protein specifically found in the outer segments (OS) of rod photoreceptors. […] Peanut agglutinin (PNA) is a lectin which binds to carbohydrates found in the outer membrane of cone photoreceptors but which are absent from rods.
Frozen sections (7 μm) were blocked with 0.1% bovine serum albumin (BSA) in 0.1% tween/PBS for 1 hour at room temperature. Sections were incubated with anti-rhodopsin antibody (LAB VISION Corporation, Fremont, Calif., USA) overnight at 4° C. Sections were washed and incubated with FITC conjugated secondary mouse antibody (Dako, Glostrup, Denmark) for 1 hour at room temperature. Following further washes, sections were mounted and viewed under a fluorescence microscope (Leica DM LB2; Leica, Nussloch, Germany) using a FITC filter.
Frozen sections (7 μm) were blocked with 0.1% bovine serum albumin (BSA) in 0.1% tween/PBS for 30 minutes at room temperature. Sections were incubated with rhodamine conjugated PNA (Invitrogen, Dun Laoghaire, Ireland) for 20 minutes at room temperature as per manufacturers' instructions. Sections were mounted and viewed under a fluorescence microscope (Leica DM LB2; Leica, Nussloch, Germany) using a TRITC filter.
as §3, with “Frozen” for “Hematoxylin staining: Eyes were fixed in 10% neutral buffered formalin overnight at 4° C., followed by cryoprotection in 25% sucrose overnight at 4° C. Frozen”
It is a better model of the slow progression of typical human autosomal recessive RP than the acute light model as photoreceptor cells are lost over a period of weeks rather than days. Loss of photoreceptors in the rd10 mouse begins at approximately 2 weeks of age, with the peak of photoreceptor death occurring at postnatal day (P) 25.

[7] = 200 mg/kg 1 hour prior to 40 mM NMDA injection, 48 and 72 hours post insult

SMILES: C#CC1(O)CC[C@H]2[C@@H]3CCC4=CC(=O)CC[C@@H]4[C@H]3CC[C@@]21CC (mixture of isomers) [norgestrel, reference compound]
- Protection of photoreceptor cells from SNP induced apoptosis (photoreceptor cells [1]): protected

SMILES: COc1cc2c(cc1OC(C)=O)CCC(C)(C)O2 [BP1]
- Lipophilicity (P), rank order [2]: BP1<BP2<BP3=BP5=BP6<BP4

SMILES: COc1cc2c(cc1OC(=O)C(C)(C)C)CCC(C)(C)O2 [BP2]
- Lipophilicity (P), rank order [2]: BP1<BP2<BP3=BP5=BP6<BP4

SMILES: CCCCC(C)C(=O)Oc1cc2c(cc1OC)OC(C)(C)CC2 (centres unmarked) [BP3]
- Lipophilicity (P), rank order [2]: BP1<BP2<BP3=BP5=BP6<BP4
- Stability of the compound [3]: far more stable than BP4
- Ganglion cell loss from the GCL (ganglion cells; [7]): significantly attenuates
- IPL thinning (ganglion cells; [7]): significantly attenuates
- Protection from NMDA-induced cell death (TUNEL positive cells, all retinal layers) (ganglion cells; 200 mg/kg I.P. 1 hour prior to NMDA injection, 4, 24, 48 and 72 hours): significantly protects retinal cells in all layers at all time points examined; also recorded: significant protection
- Inhibition of apoptosis in retinal cells (photoreceptor cells [4]): inhibiting apoptosis
- Protection of photoreceptor cells from SNP induced apoptosis at 25 μM (photoreceptor cells [1]; FIGS. 5 and 6): effective
- Concentration at which BP3 is equally as effective, times lower than BP (photoreceptor cells [1]; SNP induced apoptosis, FIGS. 5 and 6): 10 times
- Protection of photoreceptor cells from SNP induced apoptosis (photoreceptor cells [1]): protect photoreceptor cells from SNP induced apoptosis
- Protection of photoreceptor cells from SNP induced apoptosis (photoreceptor cells [1]; listed as BP-3): inhibiting apoptosis; also recorded: better protection
- Protection from light induced retinal damage (apoptosis of photoreceptors) (photoreceptor cells [5]): protects from the retinal damage observed
- Protection from light induced retinal damage (apoptosis of photoreceptors) (photoreceptor cells [5]; listed as BP-3): protected
- Protection from light induced cell death in the central retina (TUNEL positive cells, ONL) (photoreceptor cells [5]; at 24, 48 and 72 hours, 200 mg/kg, FIG. 8): approx 40%
- Protection at 72 hours post light damage (photoreceptor cells [5]; second dose of 200 mg/kg at 24 hours post light damage): significant protection
- Time to which protection extends (photoreceptor cells [5]; single injection of 200 mg/kg, post light damage): 48 h
- Cone cells in the ONL (PNA staining) (photoreceptor cells [6]; alternate days from P18 to P25): more cone cells
- Rhodopsin positive cells (rods) in the ONL compared to vehicle (photoreceptor cells [6]; alternate days from P18 to P25, immunofluorescent staining): more rhodopsin positive cells remain
- Protection from photoreceptor cell death in the ONL (photoreceptor cells [6]; injected daily with 200 mg/kg, P18 to P25, 200 mg/kg): protection from photoreceptor cell death in the ONL; also recorded: areas of the retina are protected
- Protection of retinal areas, alternate-day injection versus daily injection (photoreceptor cells [6]; injection on alternate days, all retinal areas): same level of protection as a daily injection regimen

SMILES: COc1cc2c(cc1OC(=O)c1ccccc1)CCC(C)(C)O2 [BP5]
- Lipophilicity (P), rank order [2]: BP1<BP2<BP3=BP5=BP6<BP4

SMILES: COc1cc2c(cc1OC(=O)c1ccccc1F)CCC(C)(C)O2 [BP6]
- Lipophilicity (P), rank order [2]: BP1<BP2<BP3=BP5=BP6<BP4

SMILES: COc1cc2c(cc1O)CCC(C)(C)O2 [BP, 3,4-dihydro-6-hydroxy-7-methoxy-2,2-dimethyl-1(2H)-benzopyran]
- Protection of photoreceptor cells from SNP induced apoptosis at 25 μM (photoreceptor cells [1]; FIGS. 5 and 6): effective
- Protection of photoreceptor cells from SNP induced apoptosis (photoreceptor cells [1]): protect photoreceptor cells from SNP induced apoptosis
